Measured values published in the kinase profiling compilation of Christmann-Franck et al. (2016).

Key:
Experiment in all cases: radiometric filter-binding kinase assay
[1] = tested on: AKT2 (human), P31751 [S474D]
AURKB (human) = AURKB (human) (UniProt Q96GD4)
CAMKK2 (human) = CAMKK2 (human) (UniProt Q96RR4)
CHEK1 (human) = CHEK1 (human) (UniProt O14757)
CHEK2 (human) = CHEK2 (human) (UniProt O96017)
EPHB4 (human) = EPHB4 (human) (UniProt P54760)
GCK (human) = GCK (human) (UniProt Q12851)
IGF1R (human) = IGF1R (human) (UniProt P08069)
IKBKB (human) = IKBKB (human) (UniProt O14920)
MAP2K1 (human) = MAP2K1 (human) (UniProt Q02750)
MAP3K1 (human) = MAP3K1 (human) (UniProt Q13233)
MAP3K5 (human) = MAP3K5 (human) (UniProt Q99683)
MAPK1 (human) = MAPK1 (human) (UniProt P28482)
MAPK10 (human) = MAPK10 (human) (UniProt P53779)
MAPK15 (human) = MAPK15 (human) (UniProt Q8TD08)
MAPK3 (human) = MAPK3 (human) (UniProt P27361)
MAPK9 (human) = MAPK9 (human) (UniProt P45984)
MAPKAPK2 (human) = MAPKAPK2 (human) (UniProt P49137)
MARK2 (human) = MARK2 (human) (UniProt Q7KZI7)
MINK1 (human) = MINK1 (human) (UniProt Q8N4C8)
MKNK1 (human) = MKNK1 (human) (UniProt Q9BUB5)
MKNK2 (human) = MKNK2 (human) (UniProt Q9HBH9)
NEK2 (human) = NEK2 (human) (UniProt P51955)
NTRK1 (human) = NTRK1 (human) (UniProt P04629)
PHKG1 (human) = PHKG1 (human) (UniProt Q16816)
PIM2 (human) = PIM2 (human) (UniProt Q9P1W9)
PKN2 (human) = PKN2 (human) (UniProt Q16513)
PRKAA1 or PRKAA2 (rat) = details: accession and sequence are those of the human protein
PRKACA (human) = PRKACA (human) (UniProt P17612)
PRKCA (human) = PRKCA (human) (UniProt P17252)
RPS6KA1 KD1 KD2 (human) = RPS6KA1 KD1 KD2 (human) (UniProt Q15418)
SRC (human) = SRC (human) (UniProt P12931)
[2] = molecular target: STK11 CAB39 STRADA (human) (UniProt Q9Y376+Q7RTN6+Q15831)
STK3 (human) = STK3 (human) (UniProt Q13188)
YES1 (human) = YES1 (human) (UniProt P07947)

Chain of MAPK15 (human) (Q8TD08 whole entry, looked up): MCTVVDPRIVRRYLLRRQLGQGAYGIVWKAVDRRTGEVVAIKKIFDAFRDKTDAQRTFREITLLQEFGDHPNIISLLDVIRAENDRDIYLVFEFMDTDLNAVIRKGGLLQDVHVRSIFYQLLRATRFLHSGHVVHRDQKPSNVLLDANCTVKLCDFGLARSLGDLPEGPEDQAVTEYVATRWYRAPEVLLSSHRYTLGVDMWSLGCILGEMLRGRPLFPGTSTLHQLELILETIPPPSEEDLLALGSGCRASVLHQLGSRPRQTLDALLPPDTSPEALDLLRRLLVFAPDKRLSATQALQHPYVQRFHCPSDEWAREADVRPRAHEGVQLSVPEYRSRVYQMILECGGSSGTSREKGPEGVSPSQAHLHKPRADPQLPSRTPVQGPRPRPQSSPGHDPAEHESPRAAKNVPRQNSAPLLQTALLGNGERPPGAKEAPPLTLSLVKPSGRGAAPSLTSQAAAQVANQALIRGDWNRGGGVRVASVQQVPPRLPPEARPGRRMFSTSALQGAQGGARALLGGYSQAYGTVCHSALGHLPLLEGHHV
Chain of NTRK1 (human) (P04629 whole entry, looked up): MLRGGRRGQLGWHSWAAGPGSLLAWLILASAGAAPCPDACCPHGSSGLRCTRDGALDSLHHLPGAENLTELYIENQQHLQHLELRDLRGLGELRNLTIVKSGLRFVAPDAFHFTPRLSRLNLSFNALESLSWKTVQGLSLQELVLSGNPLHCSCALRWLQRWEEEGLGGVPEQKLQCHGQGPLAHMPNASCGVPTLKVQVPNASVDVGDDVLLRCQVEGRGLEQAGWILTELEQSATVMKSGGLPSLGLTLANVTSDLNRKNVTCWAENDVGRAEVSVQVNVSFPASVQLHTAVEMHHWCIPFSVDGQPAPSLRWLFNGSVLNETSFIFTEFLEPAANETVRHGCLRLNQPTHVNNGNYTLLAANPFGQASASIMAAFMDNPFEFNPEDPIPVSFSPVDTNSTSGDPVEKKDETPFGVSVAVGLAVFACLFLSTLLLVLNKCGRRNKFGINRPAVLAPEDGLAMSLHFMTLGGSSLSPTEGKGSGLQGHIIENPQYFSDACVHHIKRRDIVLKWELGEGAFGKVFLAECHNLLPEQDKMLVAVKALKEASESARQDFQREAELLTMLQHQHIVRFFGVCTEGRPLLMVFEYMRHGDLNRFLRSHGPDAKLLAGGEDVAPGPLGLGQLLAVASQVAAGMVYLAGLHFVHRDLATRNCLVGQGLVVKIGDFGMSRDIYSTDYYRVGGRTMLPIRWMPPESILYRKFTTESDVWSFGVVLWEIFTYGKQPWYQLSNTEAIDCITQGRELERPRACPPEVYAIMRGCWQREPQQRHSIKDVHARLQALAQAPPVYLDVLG
Chain of CHEK1 (human) (O14757 whole entry, looked up): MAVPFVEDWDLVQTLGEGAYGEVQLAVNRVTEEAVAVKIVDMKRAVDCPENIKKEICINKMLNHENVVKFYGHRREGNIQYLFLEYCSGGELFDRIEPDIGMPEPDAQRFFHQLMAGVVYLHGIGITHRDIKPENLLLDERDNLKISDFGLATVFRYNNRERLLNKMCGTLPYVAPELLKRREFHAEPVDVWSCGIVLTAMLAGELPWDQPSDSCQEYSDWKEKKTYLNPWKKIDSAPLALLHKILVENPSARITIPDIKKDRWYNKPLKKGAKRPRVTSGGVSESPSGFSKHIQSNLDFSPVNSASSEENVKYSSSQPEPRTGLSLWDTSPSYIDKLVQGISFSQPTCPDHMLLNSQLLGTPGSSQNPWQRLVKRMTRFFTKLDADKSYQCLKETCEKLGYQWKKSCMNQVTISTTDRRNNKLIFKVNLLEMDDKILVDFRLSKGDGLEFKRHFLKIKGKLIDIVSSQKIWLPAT
Chain of STK3 (human) (Q13188 whole entry, looked up): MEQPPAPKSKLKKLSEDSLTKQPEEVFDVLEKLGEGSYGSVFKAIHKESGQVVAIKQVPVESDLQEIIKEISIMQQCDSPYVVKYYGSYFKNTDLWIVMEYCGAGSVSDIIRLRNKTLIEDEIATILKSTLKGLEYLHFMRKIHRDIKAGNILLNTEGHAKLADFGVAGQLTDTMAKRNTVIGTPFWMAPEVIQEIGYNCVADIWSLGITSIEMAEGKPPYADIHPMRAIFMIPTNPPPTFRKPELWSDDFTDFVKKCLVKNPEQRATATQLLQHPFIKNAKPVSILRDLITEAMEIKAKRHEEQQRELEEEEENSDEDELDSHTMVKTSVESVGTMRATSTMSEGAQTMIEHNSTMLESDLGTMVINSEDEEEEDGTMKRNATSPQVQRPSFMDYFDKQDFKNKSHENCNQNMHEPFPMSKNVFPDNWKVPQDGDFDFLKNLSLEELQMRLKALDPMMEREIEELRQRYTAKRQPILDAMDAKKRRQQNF
Chain of MARK2 (human) (Q7KZI7 whole entry, looked up): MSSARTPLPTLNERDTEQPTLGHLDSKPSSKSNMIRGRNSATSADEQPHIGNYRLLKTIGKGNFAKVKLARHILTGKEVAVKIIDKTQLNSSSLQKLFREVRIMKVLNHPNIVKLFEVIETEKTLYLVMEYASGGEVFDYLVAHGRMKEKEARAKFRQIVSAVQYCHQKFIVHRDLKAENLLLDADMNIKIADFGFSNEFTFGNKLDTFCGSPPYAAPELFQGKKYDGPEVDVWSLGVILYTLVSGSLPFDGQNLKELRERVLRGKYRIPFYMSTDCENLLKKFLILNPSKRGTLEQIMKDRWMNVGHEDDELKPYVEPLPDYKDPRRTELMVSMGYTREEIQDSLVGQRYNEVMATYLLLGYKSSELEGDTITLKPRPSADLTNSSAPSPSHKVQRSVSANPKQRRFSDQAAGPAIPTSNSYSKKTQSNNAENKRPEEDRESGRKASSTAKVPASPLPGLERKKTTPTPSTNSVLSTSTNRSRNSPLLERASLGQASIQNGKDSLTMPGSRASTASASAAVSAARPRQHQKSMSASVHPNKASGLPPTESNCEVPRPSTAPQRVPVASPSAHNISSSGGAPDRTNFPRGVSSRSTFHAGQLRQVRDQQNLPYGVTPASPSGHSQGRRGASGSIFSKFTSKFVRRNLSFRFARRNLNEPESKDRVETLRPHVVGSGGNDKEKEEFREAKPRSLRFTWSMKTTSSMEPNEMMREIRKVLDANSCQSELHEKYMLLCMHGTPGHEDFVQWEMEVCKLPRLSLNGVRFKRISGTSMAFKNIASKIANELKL
Chain of STK11 CAB39 STRADA (human) (Q15831 whole entry, looked up): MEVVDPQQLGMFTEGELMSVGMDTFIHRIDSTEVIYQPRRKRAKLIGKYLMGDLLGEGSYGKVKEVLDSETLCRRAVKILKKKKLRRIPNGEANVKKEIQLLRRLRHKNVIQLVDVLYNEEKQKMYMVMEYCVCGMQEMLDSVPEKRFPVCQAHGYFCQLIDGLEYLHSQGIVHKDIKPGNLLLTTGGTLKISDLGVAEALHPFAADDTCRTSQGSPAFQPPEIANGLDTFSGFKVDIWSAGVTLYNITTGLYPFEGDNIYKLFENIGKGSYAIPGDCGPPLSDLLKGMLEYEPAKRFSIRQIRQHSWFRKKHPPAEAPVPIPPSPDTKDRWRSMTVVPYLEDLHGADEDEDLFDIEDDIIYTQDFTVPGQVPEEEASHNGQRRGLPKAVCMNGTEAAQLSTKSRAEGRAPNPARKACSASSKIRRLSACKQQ
Chain of STK11 CAB39 STRADA (human) (Q7RTN6 whole entry, looked up): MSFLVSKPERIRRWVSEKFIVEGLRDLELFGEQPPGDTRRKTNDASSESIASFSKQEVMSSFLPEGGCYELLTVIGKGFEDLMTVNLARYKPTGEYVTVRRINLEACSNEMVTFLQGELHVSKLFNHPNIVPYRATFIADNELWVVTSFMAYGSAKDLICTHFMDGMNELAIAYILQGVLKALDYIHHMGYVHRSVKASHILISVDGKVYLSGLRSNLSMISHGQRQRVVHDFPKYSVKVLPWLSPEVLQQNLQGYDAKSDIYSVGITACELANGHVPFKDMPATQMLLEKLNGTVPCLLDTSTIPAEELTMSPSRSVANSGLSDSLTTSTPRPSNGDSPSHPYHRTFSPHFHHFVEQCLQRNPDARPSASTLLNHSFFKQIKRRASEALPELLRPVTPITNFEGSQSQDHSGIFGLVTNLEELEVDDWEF
Chain of STK11 CAB39 STRADA (human) (Q9Y376 whole entry, looked up): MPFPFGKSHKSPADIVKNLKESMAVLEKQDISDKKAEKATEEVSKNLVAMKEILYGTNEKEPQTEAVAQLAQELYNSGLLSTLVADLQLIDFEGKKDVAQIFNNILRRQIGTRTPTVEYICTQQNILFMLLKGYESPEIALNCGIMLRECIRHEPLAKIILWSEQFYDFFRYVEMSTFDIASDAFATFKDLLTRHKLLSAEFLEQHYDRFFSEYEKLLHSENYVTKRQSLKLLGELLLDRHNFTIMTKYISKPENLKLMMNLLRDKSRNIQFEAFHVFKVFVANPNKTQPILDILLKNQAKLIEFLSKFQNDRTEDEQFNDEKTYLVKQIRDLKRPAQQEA
Chain of MAPK9 (human) (P45984 whole entry, looked up): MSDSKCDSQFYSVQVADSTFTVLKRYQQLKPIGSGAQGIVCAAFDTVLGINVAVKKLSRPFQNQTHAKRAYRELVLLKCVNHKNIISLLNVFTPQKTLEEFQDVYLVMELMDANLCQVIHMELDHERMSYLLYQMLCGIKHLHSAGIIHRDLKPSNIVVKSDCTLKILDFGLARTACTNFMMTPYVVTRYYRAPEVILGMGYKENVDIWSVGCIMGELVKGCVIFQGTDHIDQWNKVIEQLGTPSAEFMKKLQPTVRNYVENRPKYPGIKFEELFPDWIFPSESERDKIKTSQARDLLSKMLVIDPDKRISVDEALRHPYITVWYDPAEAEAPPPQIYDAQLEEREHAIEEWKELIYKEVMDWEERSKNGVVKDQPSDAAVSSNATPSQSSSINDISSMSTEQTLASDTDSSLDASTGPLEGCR

COc1cc2ncn(-c3cc(OCc4ccccc4S(C)(=O)=O)c(C#N)s3)c2cc1OC
residual activity ([1]; compound 1.0 µM): 72% | residual activity ([1]; compound 10.0 µM): 98% | residual activity (AURKB (human); compound 1.0 µM): 6% | residual activity (AURKB (human); compound 10.0 µM): 4% | residual activity (CAMKK2 (human); compound 1.0 µM): 112% | residual activity (CAMKK2 (human); compound 10.0 µM): 86% | residual activity (CHEK1 (human); compound 1.0 µM): 79% | residual activity (CHEK1 (human); compound 10.0 µM): 64% | residual activity (CHEK2 (human); compound 1.0 µM): 19% | residual activity (CHEK2 (human); compound 10.0 µM): 19% | residual activity (EPHB4 (human); compound 1.0 µM): 94% | residual activity (EPHB4 (human); compound 10.0 µM): 82% | residual activity (GCK (human); compound 1.0 µM): 24% | residual activity (GCK (human); compound 10.0 µM): 8% | residual activity (IGF1R (human); compound 1.0 µM): 89% | residual activity (IGF1R (human); compound 10.0 µM): 92% | residual activity (IKBKB (human); compound 1.0 µM): 103% | residual activity (IKBKB (human); compound 10.0 µM): 78% | residual activity (MAP2K1 (human); compound 1.0 µM): 78% | residual activity (MAP2K1 (human); compound 10.0 µM): 75% | residual activity (MAP3K1 (human); compound 1.0 µM): 77% | residual activity (MAP3K1 (human); compound 10.0 µM): 54% | residual activity (MAP3K5 (human); compound 1.0 µM): 83% | residual activity (MAP3K5 (human); compound 10.0 µM): 69% | residual activity (MAPK1 (human); compound 1.0 µM): 104% | residual activity (MAPK1 (human); compound 10.0 µM): 88% | residual activity (MAPK10 (human); compound 1.0 µM): 99% | residual activity (MAPK10 (human); compound 10.0 µM): 77% | residual activity (MAPK15 (human); compound 1.0 µM): 65% | residual activity (MAPK15 (human); compound 10.0 µM): 15% | residual activity (MAPK3 (human); compound 1.0 µM): 101% | residual activity (MAPK3 (human); compound 10.0 µM): 77% | residual activity (MAPK9 (human); compound 1.0 µM): 95% | residual activity (MAPK9 (human); compound 10.0 µM): 90% | residual activity (MAPKAPK2 (human); compound 1.0 µM): 99% | residual activity (MAPKAPK2 (human); compound 10.0 µM): 85% | residual activity (MARK2 (human); compound 1.0 µM): 39% | residual activity (MARK2 (human); compound 10.0 µM): 35% | residual activity (MINK1 (human); compound 1.0 µM): 5% | residual activity (MINK1 (human); compound 10.0 µM): 1% | residual activity (MKNK1 (human); compound 1.0 µM): 47% | residual activity (MKNK1 (human); compound 10.0 µM): 34% | residual activity (MKNK2 (human); compound 1.0 µM): 47% | residual activity (MKNK2 (human); compound 10.0 µM): 35% | residual activity (NEK2 (human); compound 1.0 µM): 41% | residual activity (NEK2 (human); compound 10.0 µM): 39% | residual activity (NTRK1 (human); compound 1.0 µM): 30% | residual activity (NTRK1 (human); compound 10.0 µM): 28% | residual activity (PHKG1 (human); compound 1.0 µM): 5% | residual activity (PHKG1 (human); compound 10.0 µM): 4% | residual activity (PIM2 (human); compound 1.0 µM): 93% | residual activity (PIM2 (human); compound 10.0 µM): 78% | residual activity (PKN2 (human); compound 1.0 µM): 63% | residual activity (PKN2 (human); compound 10.0 µM): 64% | residual activity (PRKAA1 or PRKAA2 (rat); compound 1.0 µM): 10% | residual activity (PRKAA1 or PRKAA2 (rat); compound 10.0 µM): 9% | residual activity (PRKACA (human); compound 1.0 µM): 101% | residual activity (PRKACA (human); compound 10.0 µM): 83% | residual activity (PRKCA (human); compound 1.0 µM): 96% | residual activity (PRKCA (human); compound 10.0 µM): 88% | residual activity (RPS6KA1 KD1 KD2 (human); compound 1.0 µM): 50% | residual activity (RPS6KA1 KD1 KD2 (human); compound 10.0 µM): 28% | residual activity (SRC (human); compound 1.0 µM): 57% | residual activity (SRC (human); compound 10.0 µM): 64% | residual activity ([2]; compound 1.0 µM): 80% | residual activity ([2]; compound 10.0 µM): 62% | residual activity (STK3 (human); compound 1.0 µM): 19% | residual activity (STK3 (human); compound 10.0 µM): 7% | residual activity (YES1 (human); compound 1.0 µM): 43% | residual activity (YES1 (human); compound 10.0 µM): 58%
